The text below walks through data of patent CN104630230A, “一组特异识别大田软海绵酸的核酸适配体” (priority 2015, dated 2015).

Where two headings read alike, the source gives them in different places.

Holding throughout (experiment): Affinity analysis (GO separation, FAM fluorescence, saturation binding)
For test [1], the target named is 5'-FAM-labelled ssDNA OA-08 (80 nt). As to conditions: 1 μM OA, 5-200 nM ssDNA, 2 h in the dark, ex 490 nm / em 520 nm.
Test [2] has as its target 5'-FAM-labelled single-stranded DNA aptamer OA27-1 (truncated OA-27, random region 40 nt) (核酸适配体 OA27-1). As to conditions: OA27-1, saturation binding curve (Fig. 4B).
Test [3] concerns the target 5'-FAM-labelled ssDNA OA-17 (80 nt). As to conditions: 1 μM OA, 5-200 nM ssDNA, 2 h in the dark, ex 490 nm / em 520 nm.
Test [4] concerns the target 5'-FAM-labelled ssDNA OA-22 (80 nt). To be noted: 1 μM OA, 5-200 nM ssDNA, 2 h in the dark, ex 490 nm / em 520 nm.
In test [5] the target is 5'-FAM-labelled single-stranded DNA aptamer OA-27 (80 nt) (核酸适配体 OA-27).

For `C=C1[C@@H](O)[C@@H]2O[C@]3(CC[C@H](/C=C/[C@@H](C)[C@@H]4CC(C)=C[C@@]5(O[C@H](C[C@@](C)(O)C(=O)O)CC[C@H]5O)O4)O3)CC[C@H]2O[C@@H]1[C@@H](O)C[C@H](C)[C@H]1O[C@@]2(CCCCO2)CC[C@H]1C` [OA, Okadaic acid], the dissociation constant Kd (in general, a measure of binding affinity in units of concentration) was < 100 nM in test [1]; 39 nM in test [2]; < 100 nM in test [3]; < 100 nM in test [4]; < 100 nM in test [5] (1 μM OA, 5-200 nM ssDNA, 2 h in the dark, GO separation, ex 490 nm / em 520 nm, read-out: Kd); “其Kd值最小” in test [5] (in words, OA-27 compared with the other ssDNA sequences of the 8 tested (Fig. 4A)).
